From patent US6737383B1, “Herbicidal oxadiazolidines” (priority 1999, dated 2004)

Columns and labels:
smallflower flatsedge = assay: Test B flood test smallflower flatsedge; assay type: in vivo, Cyperus difformis
Outline: (§1)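 Read-out is a visual response score from 0 (no effect) to 10 (complete control), assigned by comparison with untreated controls. Treatment was applied at the 2-leaf stage, and plants stayed in the greenhouse for twelve to sixteen days before scoring.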

cocklebur = assay: Test B pre/postemergence cocklebur; assay type: in vivo, Xanthium strumarium
Outline: (§2)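 Herbicidal effect was estimated by eye on a ten-point control scale after plants spent twelve to sixteen days in a greenhouse following soil or foliar treatment. Foliar sprays targeted plants at one to four leaves; all doses were formulated in a non-phytotoxic solvent with surfactant.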

purple nutsedge = assay: Test B pre/postemergence purple nutsedge; assay type: in vivo, Cyperus rotundus
Outline: as §2

surinam grass = assay: Test B pre/postemergence surinam grass; assay type: in vivo, Brachiaria decumbens
Outline: as §2

giant foxtail = assay: Test B pre/postemergence giant foxtail; assay type: in vivo, Setaria faberii
Outline: as §2

wild oat = assay: Test B pre/postemergence wild oat; assay type: in vivo, Avena fatua
Outline: as §2

duck salad = assay: Test B flood test duck salad; assay type: in vivo, Heteranthera limosa
Outline: as §1

blackgrass = assay: Test B pre/postemergence blackgrass; assay type: in vivo, Alopecurus myosuroides
Outline: as §2

morningglory = assay: Test B pre/postemergence morningglory; assay type: in vivo, Ipomoea hederacea
Outline: as §2

pigweed = assay: Test B pre/postemergence pigweed; assay type: in vivo, Amaranthus retroflexus
Outline: as §2

bedstraw = assay: Test B pre/postemergence bedstraw; assay type: in vivo, Galium aparine
Outline: as §2

wheat = assay: Test B pre/postemergence wheat; assay type: in vivo, Triticum aestivum
Outline: as §2

velvetleaf = assay: Test B pre/postemergence velvetleaf; assay type: in vivo, Abutilon theophrasti
Outline: as §2

soybean = assay: Test B pre/postemergence soybean; assay type: in vivo, Glycine max
Outline: as §2

bamyardgrass = assay: Test B flood test barnyardgrass; assay type: in vivo, Echinochloa crus-galli
Outline: as §1

rape = assay: Test B pre/postemergence rape; assay type: in vivo, Brassica napus
Outline: as §2

[1] = Rate 62 g/ha, flood test species, Pre-emergence, visual evaluation after twelve to sixteen days
[2] = Rate 125 g/ha, under heading Pre-emergence, flood test species, visual evaluation after twelve to sixteen days
[3] = Rate 250 g/ha, Pre-emergence (flood test species), scale 0 to 10, 0 is no effect, 10 is complete control
[4] = Rate 500 g/ha, Pre-emergence section of Table B, 0 to 10 scale (0 no effect, 10 complete control)
[5] = Postemergence, Rate 62 g/ha, scale 0 to 10, 0 is no effect, 10 is complete control
[6] = Postemergence, Rate 125 g/ha, scale of 0 to 10 where 0 is no effect and 10 is complete control
[7] = Postemergence, Rate 250 g/ha, scale of 0 to 10, 0 is no effect, 10 is complete control
[8] = Postemergence, Rate 500 g/ha, scale of 0 to 10 where 0 is no effect and 10 is complete control
[9] = Preemergence, Rate 62 g/ha, scale of 0 to 10 where 0 is no effect and 10 is complete control
[10] = Preemergence, Rate 125 g/ha, scale of 0 to 10 where 0 is no effect and 10 is complete control
[11] = Preemergence, Rate 250 g/ha, scale 0 to 10 (0 no effect, 10 complete control)
[12] = Preemergence, Rate 500 g/ha, scale of 0 to 10 where 0 is no effect and 10 is complete control

## CC(C)N(C(=O)n1oc(=O)n(Cc2nnc(Cl)s2)c1=O)c1ccc(F)cc1 [Compound 646]
Smallflower flatsedge; [1]
  Plant response rating, S. Flatsedge (0 to 10 scale, 0 is no effect, 10 is complete control): 0
Smallflower flatsedge; [2]
  S. Flatsedge plant response rating (0 to 10 scale, 0 is no effect, 10 is complete control): 0
Smallflower flatsedge; [3]
  S. Flatsedge plant response rating: 0
Smallflower flatsedge; [4]
  S. Flatsedge plant response rating: 0
cocklebur; [5]
  Plant response rating, Cocklebur: 0
cocklebur; [6]
  Cocklebur plant response rating: 0
cocklebur; [7]
  Cocklebur plant response rating: 0
cocklebur; [8]
  Plant response rating, Cocklebur: 0
cocklebur; [9]
  Cocklebur plant response rating: 0
cocklebur; [10]
  Cocklebur plant response rating: 0
cocklebur; [11]
  Plant response rating, Cocklebur: 0
cocklebur; [12]
  Plant response rating, Cocklebur: 0
Purple nutsedge; [5]
  Plant response rating, Nutsedge: 0
Purple nutsedge; [6]
  Nutsedge plant response rating: 0
Purple nutsedge; [8]
  Plant response rating, Nutsedge: 0
Purple nutsedge; [9]
  Nutsedge plant response rating: 0
Purple nutsedge; [10]
  Nutsedge plant response rating: 0
Purple nutsedge; [11]
  Plant response rating, Nutsedge: 0
Purple nutsedge; [12]
  Plant response rating, Nutsedge: 0
Surinam grass; [5]
  Plant response rating, B. signalgrass: 0
Surinam grass; [6]
  Plant response rating, B. signalgrass: 0
Surinam grass; [7]
  B. signalgrass plant response rating: 0
Surinam grass; [8]
  Plant response rating, B. signalgrass: 0
Surinam grass; [9]
  B. signalgrass plant response rating: 0
Surinam grass; [10]
  B. signalgrass plant response rating: 0
Surinam grass; [11]
  Plant response rating, B. signalgrass: 0
Surinam grass; [12]
  Plant response rating, B. signalgrass: 0
Giant foxtail; [5]
  Plant response rating, Giant foxtail: 0
Giant foxtail; [6]
  Giant foxtail plant response rating: 0
Giant foxtail; [7]
  Giant foxtail plant response rating: 0
Giant foxtail; [8]
  Plant response rating, Giant foxtail: 0
Giant foxtail; [9]
  Giant foxtail plant response rating: 0
Giant foxtail; [10]
  Giant foxtail plant response rating: 0
Giant foxtail; [11]
  Plant response rating, Giant foxtail: 0
Giant foxtail; [12]
  Plant response rating, Giant foxtail: 0
Wild oat; [5]
  Plant response rating, Wild oats: 0
Wild oat; [6]
  Wild oats plant response rating: 0
Wild oat; [9]
  Wild oats plant response rating: 0
Wild oat; [10]
  Wild oats plant response rating: 0
Wild oat; [11]
  Plant response rating, Wild oats: 0
Wild oat; [12]
  Plant response rating, Wild oats: 0
Duck salad; [1]
  Plant response rating, Ducksalad (0 to 10 scale, 0 is no effect, 10 is complete control): 0
Duck salad; [2]
  Ducksalad plant response rating (0 to 10 scale, 0 is no effect, 10 is complete control): 0
Duck salad; [3]
  Ducksalad plant response rating: 0
Duck salad; [4]
  Ducksalad plant response rating: 0
blackgrass; [5]
  Plant response rating, Blackgrass: 0
blackgrass; [6]
  Blackgrass plant response rating: 0
blackgrass; [7]
  Blackgrass plant response rating: 0
blackgrass; [8]
  Plant response rating, Blackgrass: 0
blackgrass; [9]
  Blackgrass plant response rating: 0
blackgrass; [10]
  Blackgrass plant response rating: 0
blackgrass; [11]
  Plant response rating, Blackgrass: 0
blackgrass; [12]
  Plant response rating, Blackgrass: 0
morningglory; [5]
  Plant response rating, Morningglory: 0
morningglory; [6]
  Morningglory plant response rating: 0
morningglory; [7]
  Morningglory plant response rating: 0
morningglory; [8]
  Plant response rating, Morningglory: 4
morningglory; [9]
  Morningglory plant response rating: 0
morningglory; [10]
  Morningglory plant response rating: 0
morningglory; [11]
  Plant response rating, Morningglory: 0
morningglory; [12]
  Plant response rating, Morningglory: 0
pigweed; [5]
  Plant response rating, Redroot pigweed: 0
pigweed; [6]
  Redroot pigweed plant response rating: 0
pigweed; [9]
  Redroot pigweed plant response rating: 0
pigweed; [10]
  Redroot pigweed plant response rating: 0
pigweed; [11]
  Plant response rating, Redroot pigweed: 0
pigweed; [12]
  Plant response rating, Redroot pigweed: 0
bedstraw; [5]
  Plant response rating, Bedstraw: 0
bedstraw; [7]
  Bedstraw plant response rating: 0
bedstraw; [9]
  Bedstraw plant response rating: 0
wheat; [5]
  Plant response rating, Wheat: 0
wheat; [6]
  Wheat plant response rating: 0
wheat; [9]
  Wheat plant response rating: 0
wheat; [10]
  Wheat plant response rating: 0
wheat; [11]
  Plant response rating, Wheat: 0
wheat; [12]
  Plant response rating, Wheat: 0
velvetleaf; [5]
  Plant response rating, Velvetleaf: 0
velvetleaf; [6]
  Velvetleaf plant response rating: 0
velvetleaf; [9]
  Velvetleaf plant response rating: 0
velvetleaf; [10]
  Velvetleaf plant response rating: 0
velvetleaf; [11]
  Plant response rating, Velvetleaf: 0
velvetleaf; [12]
  Plant response rating, Velvetleaf: 0
soybean; [5]
  Plant response rating, Soybean: 0
soybean; [6]
  Soybean plant response rating: 1
soybean; [9]
  Soybean plant response rating: 0
soybean; [10]
  Soybean plant response rating: 0
soybean; [11]
  Plant response rating, Soybean: 0
soybean; [12]
  Plant response rating, Soybean: 0
bamyardgrass; [1]
  Plant response rating, Barnyardgrass (0 to 10 scale, 0 is no effect, 10 is complete control): 0
bamyardgrass; [2]
  Barnyardgrass plant response rating (0 to 10 scale, 0 is no effect, 10 is complete control): 0
bamyardgrass; [3]
  Barnyardgrass plant response rating: 0
bamyardgrass; [4]
  Barnyardgrass plant response rating: 0
rape; [5]
  Plant response rating, Rape: 0
rape; [6]
  Rape plant response rating: 0
rape; [8]
  Plant response rating, Rape: 0
rape; [9]
  Rape plant response rating: 0
rape; [10]
  Rape plant response rating: 0
rape; [11]
  Plant response rating, Rape: 0
rape; [12]
  Plant response rating, Rape: 0
